The target of one assay is T1, human Src kinase (Homo sapiens, UniProt P12931).
T1 construct: 25 nM of recombinant human Src kinase
The assay can be described thus: Src inhibition assay B: spectrophotometric (uv-vis) coupled enzyme assay. It is filed as biochemical. The conditions noted are these: 100 μM ATP. How it is done:
The compounds are evaluated as inhibitors of human Src kinase using either a radioactivity-based assay or spectrophotometric assay.
Src Inhibition Assay B: Spectrophotometric Assay
The ADP produced from ATP by the human recombinant Src kinase-catalyzed phosphorylation of poly Glu-Tyr substrate is quantified using a coupled enzyme assay [Fox et al. Protein Sci. 1998, 7, 2249]. In this assay one molecule of NADH is oxidised to NAD for every molecule of ADP produced in the kinase reaction. The disappearance of NADH is conveniently followed at 340 nm.
The following are the final concentrations of the assay components: 0.025 M HEPES (pH 7.6), 10 mM MgCl2, 2 mM DTT, 0.25 mg/ml poly Glu-Tyr, and 25 nM of recombinant human Src kinase. Final concentrations of the components of the coupled enzyme system are 2.5 mM phosphoenolpyruvate, 200 μM NADH, 30 μg/ml pyruvate kinase and 10 μg/ml lactate dehydrogenase.
In a typical assay, all the reaction components with the exception of ATP are pre-mixed and aliquoted into assay plate wells. Inhibitors dissolved in DMSO are added to the wells to give a final DMSO concentration of 2.5%. The assay plate is incubated at 30° C. for 10 min before initiating the reaction with 100 μM ATP. The absorbance change at 340 nm with time, the rate of the reaction, is monitored on a molecular devices plate reader. The data of rate as a function of the inhibitor concentration is fitted to competitive inhibition kinetics model to get the Ki for the compound.

For another assay, the target named is T2, c-KIT (Homo sapiens, UniProt P10721).
T2 construct: 0.02% BSA and 25 nM c-KIT
The assay can be described thus: Inhibition of c-KIT, radiometric filter-binding assay. It is filed as biochemical. Particulars: 700 μM ATP, pE4Y substrate. The procedure: Compounds are screened for their ability to inhibit c-KIT activity using a radiometric filter-binding assay. This assay monitors the ^33P incorporation into a substrate poly(Glu, Tyr) 4:1 (pE4Y). Reactions are carried out in a solution containing 100 mM HEPES (pH 7.5), 10 mM MgCl2, 25 mM NaCl, 1 mM DTT, 0.01% BSA and 2.5% DMSO. Final substrate concentrations in the assay were 700 μM ATP and 0.5 mg/mL pE4Y (both from Sigma Chemicals, St Louis, Mo.). The final concentration of compounds is generally between 0.01 and 5 μM. Typically, a 12-point titration is conducted by preparing serial dilutions from 10 mM DMSO stock of test compound. Reactions were carried out at room temperature.
Two assay solutions are prepared. Solution 1 contains 100 mM HEPES (pH 7.5), 10 mM MgCl2, 25 mM NaCl, 1 mg/ml pE4Y and 1.4 mM ATP (containing 0.5 μCi of [γ-^33P]ATP for each reaction). Solution 2 contains 100 mM HEPES (pH 7.5), 10 mM MgCl2, 25 mM NaCl, 2 mM DTT, 0.02% BSA and 25 nM c-KIT. The assay is run on a 96 well plate by mixing 33 μL of Solution1 and 1.65 μL of the test compounds. The reaction is initiated with 33 μL of Solution2. After incubation for 20 minutes at room temperature, the reaction was stopped with 50 μL of 10% TCA containing 0.2 mM of ATP. All of the reaction volume is then transferred to a filter plate and washed with 5% TCA by a Harvester9600 from TOMTEC (Hamden, Conn.). The amount of ^33P incorporation into pE4y is analyzed by a Packard TopCount Microplate Scintillation Counter (Meriden, Conn.). The data is fitted using Prism software to get an IC50 or Ki.

pKi: −log10 of the molar value.

T1 sequence (P12931 whole entry): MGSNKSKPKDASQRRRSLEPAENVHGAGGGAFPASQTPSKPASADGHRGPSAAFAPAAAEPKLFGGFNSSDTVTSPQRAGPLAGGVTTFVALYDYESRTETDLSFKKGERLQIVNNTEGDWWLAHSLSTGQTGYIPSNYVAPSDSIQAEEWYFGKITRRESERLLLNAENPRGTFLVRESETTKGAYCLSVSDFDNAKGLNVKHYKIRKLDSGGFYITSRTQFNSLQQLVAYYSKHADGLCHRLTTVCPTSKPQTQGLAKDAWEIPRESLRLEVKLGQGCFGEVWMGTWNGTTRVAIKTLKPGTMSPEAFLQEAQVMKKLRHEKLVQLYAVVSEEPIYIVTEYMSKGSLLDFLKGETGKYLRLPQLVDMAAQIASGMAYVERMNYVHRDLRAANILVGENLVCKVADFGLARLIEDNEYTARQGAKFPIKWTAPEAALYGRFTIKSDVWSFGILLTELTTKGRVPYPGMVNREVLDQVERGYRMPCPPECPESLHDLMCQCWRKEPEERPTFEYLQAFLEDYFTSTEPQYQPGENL
T2 sequence (P10721 26-976): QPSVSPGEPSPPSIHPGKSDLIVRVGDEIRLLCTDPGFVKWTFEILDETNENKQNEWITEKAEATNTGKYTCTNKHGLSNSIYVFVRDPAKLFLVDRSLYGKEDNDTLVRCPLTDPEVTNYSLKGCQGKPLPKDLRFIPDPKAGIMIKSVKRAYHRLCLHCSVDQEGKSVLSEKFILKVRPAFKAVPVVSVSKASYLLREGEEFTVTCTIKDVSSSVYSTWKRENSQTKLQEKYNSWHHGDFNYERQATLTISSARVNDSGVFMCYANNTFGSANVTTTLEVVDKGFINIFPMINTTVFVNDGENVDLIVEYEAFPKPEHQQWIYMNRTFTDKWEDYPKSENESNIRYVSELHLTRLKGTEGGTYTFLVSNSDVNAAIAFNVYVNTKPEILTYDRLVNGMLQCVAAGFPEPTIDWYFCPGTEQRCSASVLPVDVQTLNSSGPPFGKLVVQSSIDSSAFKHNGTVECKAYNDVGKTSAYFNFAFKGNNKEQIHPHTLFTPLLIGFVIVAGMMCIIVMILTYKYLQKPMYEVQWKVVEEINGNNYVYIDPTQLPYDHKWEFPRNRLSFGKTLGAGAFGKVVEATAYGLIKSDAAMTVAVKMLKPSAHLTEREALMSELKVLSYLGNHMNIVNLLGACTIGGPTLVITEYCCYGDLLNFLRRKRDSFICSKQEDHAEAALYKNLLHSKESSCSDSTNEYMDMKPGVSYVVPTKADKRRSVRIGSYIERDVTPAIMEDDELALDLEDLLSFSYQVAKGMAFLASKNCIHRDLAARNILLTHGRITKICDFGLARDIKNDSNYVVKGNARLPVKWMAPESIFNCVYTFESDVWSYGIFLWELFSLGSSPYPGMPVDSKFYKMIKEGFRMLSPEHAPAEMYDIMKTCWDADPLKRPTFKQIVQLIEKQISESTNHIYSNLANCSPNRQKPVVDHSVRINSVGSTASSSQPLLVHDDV

In the case of `CC(=O)N1[C@H](C)CN(c2cc(-n3cnc(Nc4ccc(NC(=O)NC(C)C)cc4)n3)ccn2)C[C@@H]1C` [Compound I-100], the results for the pKi on human Src kinase and on c-KIT were above 6.30 and 6.30 to 7.30, respectively.

As for `O=C(Nc1cc(-n2cnc(Nc3ccccc3)n2)ccn1)C1CCCCC1` [Compound I-93], the pKi on human Src kinase was 6.00 to 6.30.

Consider `c1ccc(Nc2ncn(-c3ccnc(NC4CCCCC4)c3)n2)cc1` [Compound I-50], for which, at human Src kinase, the pKi is above 6.30.

For the compound `O=C(CC1CCCC1)Nc1cc(-n2cnc(Nc3ccccc3)n2)ccn1` [Compound I-94, 2-Cyclopentyl-N-[4-(3-phenylamino-[1,2,4]triazol-1-yl)-pyridin-2-yl]-acetamide], the pKi on human Src kinase is above 6.30.

With `O=c1[nH]c2ccccc2n1C1CCN(c2cc(-n3cnc(Nc4ccccc4)n3)ccn2)CC1` [Compound I-63], the pKi on human Src kinase is below 6.00.

For the compound `CC(C)C(=O)N1CCCN(c2cc(-n3cnc(Nc4ccccc4)n3)ccn2)CC1` [Compound I-69], on human Src kinase, the pKi was below 6.00.

In the case of `CC(=O)N1[C@H](C)CN(c2cc(-n3cnc(Nc4ccc(N5CCN(C(=O)OC(C)(C)C)CC5)cc4)n3)ccn2)C[C@@H]1C` [Compound I-97, 4-(4-{1-[2-(4-Acetyl-3,5-dimethyl-piperazin-1-yl)-pyridin-4-yl]-1H-[1,2,4]triazol-3-ylamino}-phenyl)-piperazine-1-carboxylic acid tert-butyl ester], the figures for the pKi on human Src kinase and at c-KIT were above 6.30 and 6.30 to 7.30, respectively.

Compound `CC(C)CCN(C)c1cc(-n2cnc(Nc3ccccc3)n2)ccn1` [Compound I-62, methyl-(3-methyl-butyl)-[4-(3-phenylamino-[1,2,4]triazol-1-yl)-pyridin-2-yl]-amine] had a pKi at human Src kinase of 6.00 to 6.30.

For the compound `CC(=O)N1[C@H](C)CN(c2cc(-n3cnc(Nc4ccc(NC(=O)OCC(C)C)cc4)n3)ccn2)C[C@@H]1C` [Compound I-90], the pKi at human Src kinase is 6.00 to 6.30; at c-KIT it was 6.30 to 7.30.

`CCOc1ccc(Nc2ncn(-c3ccccc3)n2)cc1` [Compound I-47]: the pKi on human Src kinase was below 6.00; on c-KIT, above 7.30.

Turning to `c1ccc(-n2cnc(Nc3ccnc(NCCN4CCOCC4)c3)n2)cc1` [Compound I-107], the negative logarithm of the Ki (pKi) on human Src kinase is below 6.00.

As to `CC(=O)N1[C@H](C)CN(c2cc(-n3cnc(Nc4ccc(NC(=O)c5ccco5)cc4)n3)ccn2)C[C@@H]1C` [Compound I-81, Furan-2-carboxylic acid (4-{1-[2-(4-acetyl-3,5-dimethyl-piperazin-1-yl)-pyridin-4-yl]-1H-[1,2,4]triazol-3-ylamino}-phenyl)-amide], the negative-log Ki (pKi) is above 6.30 at human Src kinase and 6.30 to 7.30 on c-KIT.

The compound `CN(CCO)c1cc(-n2cnc(Nc3ccccc3)n2)ccn1` [Compound I-51] had a pKi on human Src kinase below 6.00.

At human Src kinase, `c1ccc(-n2cnc(Nc3ccc(N4CCOCC4)nc3)n2)cc1` [Compound I-134] had a negative logarithm of the Ki (pKi) below 6.00.

With `CN(Cc1ccccc1)c1cc(-n2cnc(Nc3ccccc3)n2)ccn1` [Compound I-55], the pKi at human Src kinase was 6.00 to 6.30; on c-KIT, above 7.30.

As for `O=C(Cc1ccccc1)Nc1cc(-n2cnc(Nc3ccccc3)n2)ccn1` [Compound I-96], the pKi at human Src kinase was above 6.30.

`CN(Cc1cccnc1)c1cc(-n2cnc(Nc3ccccc3)n2)ccn1` [Compound I-57]: the negative logarithm of the Ki (pKi) at human Src kinase is 6.00 to 6.30.

Compound `CC(C)(C)CC(=O)Nc1cc(-n2cnc(Nc3ccccc3)n2)ccn1` [Compound I-102] gave a pKi at human Src kinase above 6.30.

As for `CCOC(=O)c1ccc(Nc2ncn(-c3ccnc(N4CCCN(C(C)=O)CC4)c3)n2)cc1` [Compound I-76], the negative-log Ki (pKi) at human Src kinase was below 6.00.

In turn, `CCN(CCO)c1cc(-n2cnc(Nc3ccccc3)n2)ccn1` [Compound I-54] showed a pKi on human Src kinase above 6.30.

Consider `c1ccc(-n2cnc(Nc3ccc4c(c3)OCCO4)n2)cc1` [Compound I-44], for which the pKi was 6.00 to 6.30 at human Src kinase and above 7.30 on c-KIT.

For `CCN(CC)CCNc1cc(-n2cnc(Nc3ccccc3)n2)ccn1` [Compound I-60], the pKi on human Src kinase is below 6.00.

Consider `CCNC(=O)Nc1ccc(Nc2ncn(-c3ccnc(N4C[C@@H](C)N(C(C)=O)[C@@H](C)C4)c3)n2)cc1` [Compound I-98, 1-(4-{1-[2-(4-Acetyl-3,5-dimethyl-piperazin-1-yl)-pyridin-4-yl]-1H-[1,2,4]triazol-3-ylamino}-phenyl)-3-ethyl-urea], for which the negative-log Ki (pKi) is above 6.30 at human Src kinase and 6.30 to 7.30 on c-KIT.

The compound `c1ccc(Nc2ncn(-c3ccnc(N4CCCCC4)c3)n2)cc1` [Compound I-49, phenyl-[1-(3,4,5,6-tetrahydro-2H-[1,2′]bipyridinyl-4′-yl)-1H-[1,2,4]triazol-3-yl]-amine] had a negative-log Ki (pKi) on human Src kinase above 6.30.

For `c1ccc(Nc2ncn(-c3ccnc(N4CCCCCCC4)c3)n2)cc1` [Compound I-52], on human Src kinase, the pKi was above 6.30.

`CN1CCN(c2ccc(Nc3ncn(-c4ccccc4)n3)cn2)CC1` [Compound I-135] gave a pKi on human Src kinase below 6.00.

Consider `CC1CCCN1c1cc(-n2cnc(Nc3ccccc3)n2)ccn1` (centres unmarked) [Compound I-56], for which the pKi is 6.00 to 6.30 at human Src kinase and above 7.30 on c-KIT.

Take `CC(C)CC(=O)N1CCCN(c2cc(-n3cnc(Nc4ccccc4)n3)ccn2)CC1` [Compound I-70]: the negative-log Ki (pKi) at human Src kinase was below 6.00.

Turning to `CN1C(C)(C)CC(Nc2cc(-n3cnc(Nc4ccccc4)n3)ccn2)CC1(C)C` [Compound I-61], the negative logarithm of the Ki (pKi) at human Src kinase was above 6.30.

For `O=C(C1CCCO1)N1CCN(c2cc(-n3cnc(Nc4ccccc4)n3)ccn2)CC1` (centres unmarked) [Compound I-64], at human Src kinase, the pKi is below 6.00.

As to `CCCN(CCO)c1cc(-n2cnc(Nc3ccccc3)n2)ccn1` [Compound I-58], the pKi at human Src kinase is above 6.30; on c-KIT, above 7.30.

Regarding `COCCN(C)c1cc(-n2cnc(Nc3ccccc3)n2)ccn1` [Compound I-59, (2-methoxy-ethyl)-methyl-[4-(3-phenylamino-[1,2,4]triazol-1-yl)-pyridin-2-yl]-amine], on human Src kinase, the pKi was below 6.00.

Turning to `CCCNC(=O)Nc1ccc(Nc2ncn(-c3ccnc(N4C[C@@H](C)N(C(C)=O)[C@@H](C)C4)c3)n2)cc1` [Compound I-99], the pKi at human Src kinase is above 6.30; on c-KIT, 6.30 to 7.30.

Consider `CC(=O)N1[C@H](C)CN(c2cc(-n3cnc(Nc4ccc(NC(=O)OCC(C)(C)C)cc4)n3)ccn2)C[C@@H]1C` [Compound I-91], for which the values for the negative-log Ki (pKi) on human Src kinase and at c-KIT were 6.00 to 6.30 and 6.30 to 7.30, respectively.

For the compound `c1ccc(-n2cnc(Nc3ccc(N4CCOCC4)cc3)n2)cc1` [Compound I-106], the negative-log Ki (pKi) at human Src kinase is below 6.00.

For the compound `CC(=O)N1[C@H](C)CN(c2cc(-n3cnc(Nc4ccc(N5CCN(S(=O)(=O)c6ccc(C)cc6)CC5)cc4)n3)ccn2)C[C@@H]1C` [Compound I-92], the pKi at human Src kinase is 6.00 to 6.30; on c-KIT it was 6.30 to 7.30.

In turn, `CCCC(=O)N1CCCN(c2cc(-n3cnc(Nc4ccccc4)n3)ccn2)CC1` [Compound I-68] gave a pKi on human Src kinase below 6.00.

For `CC(=O)N1[C@H](C)CN(c2cc(-n3cnc(Nc4ccc(NC(=O)c5cccs5)cc4)n3)ccn2)C[C@@H]1C` [Compound I-80], the figures for the pKi on human Src kinase and at c-KIT were 6.00 to 6.30 and above 7.30, respectively.

Take `O=C(CCc1ccccc1)Nc1cc(-n2cnc(Nc3ccccc3)n2)ccn1` [Compound I-95]: on human Src kinase, the pKi is above 6.30.

Turning to `CN(C)CCCN(C)c1cc(-n2cnc(Nc3ccccc3)n2)ccn1` [Compound I-53], the pKi at human Src kinase was below 6.00.

With `CC(=O)N1[C@H](C)CN(c2cc(-n3cnc(Nc4ccc(NC(=O)NC(C)(C)C)cc4)n3)ccn2)C[C@@H]1C` [Compound I-101], the figures for the pKi at human Src kinase and at c-KIT were 6.00 to 6.30 and 6.30 to 7.30, respectively.

Source of the values: US7598245B2 (Vertex Pharmaceuticals Incorporated, priority 2003, dated 2009).
